Like-named read-outs stand apart in the source and are kept apart here.

A word on the IC50: it is the concentration that inhibits the measured activity by half. A lower IC50 goes with greater potency in that assay. By T/C is commonly meant the result in the treated group divided by that in the control group, in per cent.

The subject of one test is Hs746t cells. The experiment in a line: Hs746t cell proliferation. Format: cell-based, human. From the text: (§1) Hs746t is a gastric cancer cell line known to have MET exon 14 skipping mutation(s) and MET amplification (Asaoka et al., Biochem Biophys Res Commun 394:1042-1046).
A further test relates to pMET. The experiment in a line: pMET in Hs746t cells. Format: cell-based, human.
Test [1] concerns Hs746t-derived xenograft of human gastric carcinoma. Briefly: Hs746t xenograft model, Example 1 (combination vs monotherapy). Format: in vivo, mice. As for the experimental part: as §1
(§2) Female athymic nude mice (Envigo) are used for this study. Food and water are available ad libitum. Animals are acclimated for 1 week prior to any experimental manipulation. The study is performed in accordance with AAALAC accredited institutional guidelines.
Merestinib is formulated as a solution in 10% PEG 400/90% (20% Captisol in water). Emibetuzumab is diluted in phosphate buffered saline (PBS). Solutions are freshly prepared every 7 days.
Obtain Hs746t cells from ATCC (American Type Culture Collection) and maintain in RPMI 1640 with 10% fetal bovine serum at 37° C. in 5% CO2. Expand cells in culture, harvest, and wash in Hank's Balanced Salt Solution (HBSS, GIBC®). Implant sub-confluent […] cells into 60 female nu/nu mice at a concentration of 1×10^7 cells in 0.2 ml HBSS subcutaneously into the hind flank of the animal.
Administer merestinib by oral gavage at either 6 mg/kg or 12 mg/kg in a dose volume of 0.2 mL in 10% polyethylene glycol 400/90% of a mixture of 20% Captisol in water, and antibody treatments by intraperitoneal injection (IP) starting on day 12 after tumor cell implantation when average tumor volume of 350 mm^3 and ending on Day 33. Inject animals IP in a dosing volume of 10 mg/kg. After 14 days of dosing (Study Day 27), the animals in the control group are sacrificed because of tumor volumes exceeding >2000 mm^3. After the 28-day dosing period, animals in the single agent arms are sacrificed. […]
In both studies, animals are sacrificed using CO2 and cervical dislocation when tumors grow larger than 2000 mm^3, or at the end of study.
Record tumor growth and body weight changes at least twice a week. Body weight measurement during the course of the study, is a general indicator of tolerability.
(§3) Measure tumor growth with calipers and record body weights twice weekly. Calculate tumor volumes by the formula Volume (mm^3)=L×W^2 (π/6) where L represents the larger diameter and W the smaller diameter. Calculate T/C % using the formula T/C %=100×ΔT/ΔC. Where ΔT=mean tumor volume of the drug-treated group on the final day of the study−mean tumor volume of the drug-treated group on the initial day of the dosing and ΔC=mean tumor volume of the control group on the final day of the study−mean tumor volume of the control group on the initial day of the dosing. Calculate changes in body weight by the formula (Weight on observation day−Weight on day 12)/Weight on Day 12×100. Calculate test for significant differences between treatment groups by RMANOVA using the JMP (v.9.0.3) statistical package (SAS Institute Inc., Cary, N.C., USA).
The p-value from the 2×2 interaction test on day 28 is not significant at p=0.654. All pairwise comparisons between the combination group and each single agent group on day 33 are also statistically significant. […] Full statistical analysis is not feasible as the animals in the vehicle control groups were removed after 14 days of dosing as the animals are sacrificed due to tumor burden.

For test [2] the test system is unchanged. Briefly: Hs746t xenograft model, Example 2 (sequential and concurrent administration). The class given is in vivo, mice. As for the experimental part:
as §2
Merestinib is formulated as a solution in 10% PEG 400/90% (20% Captisol in water). Emibetuzumab and IgG control are diluted in PBS. Solutions are freshly prepared every 7 days.
Obtain, maintain, expand, harvest, and wash Hs746t cell as in Example 1. Implant cells into 36 female nu/nu mice at a concentration of 2×10^6 cells in 0.2 ml HBSS subcutaneously into the hind flank of the animal. […] After the 28-day dosing period, animals in the single agent arms are sacrificed. Tumors in the animals in the combination treatment groups are monitored for continued growth or regrowth of tumors.
In these studies, animals are sacrificed using CO2 and cervical dislocation when tumors grow larger than 2000 mm^3, or at the end of study.
Measure tumor volumes and body weight at least twice weeky. Body weight measurement during the course of the study, is a general indicator of tolerability.
as §3, with “RM ANOVA” for “RMANOVA”
Transform tumor volume to the log scale to equalize variance across time and treatment groups. Analyze the log volume data with a two-way repeated measures analysis of variance by time and treatment using the MIXED procedures in SAS software (Version 9.3). The correlation model for the repeated measures is spatial power. Compare treated groups to the control group at each time point. The MIXED procedure is also used separately for each treatment group to calculate adjusted means and standard errors at each time point. Both analyses account for the autocorrelation within each animal and the loss of data that occurs when animals are removed or lost before the end of the study. The adjusted means and standard errors are plotted for each treatment group versus time. […]

In the test on Hs746t cells (Homo sapiens), `Cc1ccc(C(=O)Nc2ccc(Oc3cc4cnn(C)c4cc3-c3cn[nH]c3)c(F)c2)c(=O)n1-c1ccc(F)cc1` [merestinib, N-(3-Fluoro-4-(1-methyl-6-(1H-pyrazol-4-yl)-1H-indazol-5-yloxy)phenyl)-1-(4-fluorophenyl)-6-methyl-2-oxo-1,2-dihydropyridine-3-carboxamide] displayed an IC50 of 34 nM. For the same molecule, in the test with pMET (at 65-100 nM), the “effect on pMET” value is “totally eliminates”. Besides, the tumor response course entry in test [1] (merestinib 6 mg/kg qd orally) is given as “transient tumor regression followed by re-growth while on treatment”. Besides, the T/C in test [1] (merestinib 6 mg/kg qd orally, after 21 day dosing) is 18.3%. The “mice with no tumor regrowth” value in test [1] (merestinib 12 mg/kg cohort, during the 5 weeks post-treatment) is 6/7. For the same molecule, in test [1] (merestinib 12 mg/kg qd orally, after 21 day dosing), the tumor regression came to 91.8%. The “tumor volume on re-growth while on treatment” value in test [2] (merestinib 6 mg/kg qd single agent, by Day 37) is “about 500 mm^3”. Further, in test [2] (merestinib 6 mg/kg qd, Day 27 (7 days of dosing)), the maximal tumor regression amounted to 30.2%.
Regarding “emibetuzumab: C8-H241-IgG4 anti-human MET antibody: two light chains of SEQ ID NO: 5 and two heavy chains of SEQ ID NO: 7”, the IC50 with Hs746t cells was over 100 nM. The “effect on pMET expression” value in the test with pMET (at 130-650 nM) is “no effect”. Moreover, the tumor response course result in test [1] (emibetuzumab 10 mg/kg IP qw) is “tumors are observed to regrow while on treatment”. In addition, the transient tumor regression in test [1] (emibetuzumab 10 mg/kg IP qw, after 3 doses) is listed as 37.7%. The maximum tumor regression was found to be 16.0% in test [2] (emibetuzumab 10 mg/kg qw, Day 27) and 58.9% in test [2] (emibetuzumab 20 mg/kg qw, Day 37).

For the origin of these results see patent US20210283249A1, “COMBINATION THERAPY FOR CANCER WITH EXON 14 SKIPPING MUTATION(S) OR EXON 14 SKIPPING PHENOTYPE” (Eli Lilly and Company, priority 2016, published 2021).
